Holding throughout (test): NCI anticancer screen, dose series, 48 h
Experiment [1] has as its system A498.
Experiment [2] relates to ACHN.
In experiment [3] the test system is DU-145.
For experiment [4], the system named is HCT-116.
Experiment [5] concerns HCT-15.
Experiment [6] deals with HL-60.
Experiment [7] has as its system K562.
Experiment [8] has as its system KM12.
In experiment [9] the test system is LOX IMVI.
The subject of experiment [10] is M14.
In experiment [11] the test system is MDA-MB-231.
Experiment [12] deals with MDA-N.
Experiment [13] has as its system Malme-3M.
The subject of experiment [14] is NCI-H23.
In experiment [15] the test system is NCI-H522.
Experiment [16] deals with OVCAR-4.
For experiment [17], the system named is OVCAR-8.
The subject of experiment [18] is PC-3.
The subject of experiment [19] is SK-MEL-2.
For experiment [20], the system named is SK-MEL-5.

The structures appear in SMILES notation.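 Exposure lasted 48 hours, with cells grown in 96-well plates and compounds tested at five concentrations. The concentration for 50% growth inhibition is given as GI50.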 Activity calls are given as the source filed them. Rule as the data show it: active = GI50 up to about 1.1 µM and inactive = higher.

For `CC(=O)OC1C2CCC3CC2C2(SCCS2)C31` (stereo not drawn), the GI50 in [1] was > 100 µM (inactive); in [2], > 100 µM (inactive); in experiment [3] it was > 100 µM (inactive); in experiment [4] it was > 100 µM (inactive); in experiment [5], above 100 µM; in experiment [6], 70.8 µM (inactive). In addition, the GI50 in experiment [7] was > 100 µM (inactive); in experiment [8] it was > 100 µM (inactive); in experiment [9], > 100 µM (inactive); in experiment [10], > 100 µM (inactive); in [11], 51.9 µM (inactive); in experiment [12] it was > 100 µM (inactive). In addition, the GI50 in experiment [13], in experiment [14], in experiment [15], in experiment [16], in [17] and in [18] was > 100 µM (inactive) throughout. Also, the GI50 in [19] and in experiment [20] was > 100 µM (inactive) in each case.
As for `N=C1N=C(N)c2cc3c(cc21)SCCSCCCSCCS3`, the GI50 was > 44.7 µM (inactive) in experiment [1]; 12.9 µM (inactive) in experiment [2]; 31.6 µM (inactive) in experiment [3]; 9.59 µM (inactive) in experiment [4]; 14.3 µM in [5]; 3.77 µM (inactive) in experiment [6]. The GI50 was 4.71 µM (inactive) in [7]; 11.9 µM (inactive) in [8]; 4.38 µM (inactive) in experiment [9]; 16.6 µM (inactive) in experiment [10]; 16 µM (inactive) in experiment [11]; 15 µM (inactive) in [12]. In addition, the GI50 in experiment [13] is 20.5 µM (inactive); in [14] it was 11.3 µM (inactive); in experiment [15], 2.8 µM (inactive); in experiment [16] it was 19.8 µM (inactive); in [17], 18 µM (inactive); in experiment [18] it was 15.1 µM (inactive). In addition, the results for the GI50 in [19] and in experiment [20] were 16.1 µM (inactive) and 16 µM (inactive), respectively.
`COc1ccc(C2=Nn3c(nc4sc5c(c4c3=O)CCCC5)SC2)cc1`: the GI50 in experiment [1] is > 100 µM (inactive); in experiment [2], > 100 µM (inactive); in [3] it was > 100 µM (inactive); in experiment [4], > 100 µM (inactive); in experiment [5] it was above 100 µM; in [6] it was > 100 µM (inactive). The GI50 in experiment [7], in experiment [8], in experiment [9], in experiment [11], in experiment [12] and in [13] was > 100 µM (inactive) throughout. Also, the GI50 in [14], in experiment [15], in experiment [16], in experiment [17], in experiment [18] and in experiment [20] was > 100 µM (inactive) in each case.
Turning to `N#CCCN(CCC#N)c1ccc(/C=N\c2ccc(F)cc2)cc1`, the GI50 is > 100 µM (inactive) in experiment [1]; 3.16 µM (inactive) in experiment [2]; > 100 µM (inactive) in [3]; 6.97 µM (inactive) in experiment [4]; 1.15 µM in experiment [5]; 6.46 µM (inactive) in [6]. The GI50 is 0.137 µM (active) in [7]; 0.236 µM (active) in [9]; 1.62 µM (inactive) in experiment [10]; > 100 µM (inactive) in experiment [11]; 71.3 µM (inactive) in [12]; > 84.3 µM (inactive) in experiment [13]. Moreover, the GI50 in experiment [14] was > 100 µM (inactive); in [15], > 100 µM (inactive); in experiment [16], > 49.1 µM (inactive); in experiment [17], > 100 µM (inactive); in experiment [18], 75.3 µM (inactive); in [19], > 16.1 µM (inactive). The GI50 in [20] was 14.5 µM (inactive).
Take `Clc1ccccc1-c1nc(-c2ccncc2)no1` [PIFEXOLE]: the GI50 in experiment [1] is 37.6 µM (inactive); in [2], 88.1 µM (inactive); in [3] it was 87.9 µM (inactive); in experiment [4], 43.4 µM (inactive); in experiment [5] it was 44.7 µM; in [6] it was 13.4 µM (inactive). Also, the GI50 in [7] was 26.6 µM (inactive); in experiment [8], > 100 µM (inactive); in [10] it was 62.2 µM (inactive); in [11] it was 94.4 µM (inactive); in experiment [12], 49.3 µM (inactive); in experiment [13], 75.3 µM (inactive). For the same compound, the GI50 in experiment [14] was 49.4 µM (inactive); in [15], 25.8 µM (inactive); in experiment [16], 59.8 µM (inactive); in experiment [17], 90.6 µM (inactive); in experiment [18] it was 78 µM (inactive); in experiment [19], > 100 µM (inactive). Also, the GI50 in experiment [20] was 22.9 µM (inactive).
On to `COC(=O)c1ccccc1/C=C1/Cc2cccc(C)c2C1=O`, for which the GI50 is > 100 µM (inactive) in [1]; 57.5 µM (inactive) in experiment [2]; > 100 µM (inactive) in [3]; > 100 µM (inactive) in experiment [4]; above 100 µM in [5]; > 100 µM (inactive) in experiment [6]. Moreover, the GI50 in [7], in experiment [8], in [9], in experiment [11], in [12] and in [13] was > 100 µM (inactive) throughout. The GI50 in experiment [14] is > 100 µM (inactive); in [15] it was > 100 µM (inactive); in experiment [16], > 100 µM (inactive); in experiment [17], > 100 µM (inactive); in experiment [18], > 100 µM (inactive); in experiment [20], 32.8 µM (inactive).
Turning to `COc1cc2ccc(C(C)NCC#N)cc2cc1OC` (stereo not drawn), the GI50 is > 100 µM (inactive) in experiment [1]; > 100 µM (inactive) in [2]; > 100 µM (inactive) in experiment [3]; > 100 µM (inactive) in experiment [4]; above 100 µM in experiment [5]; 46.5 µM (inactive) in experiment [6]. For the same compound, the GI50 in experiment [7], in experiment [8], in [9], in experiment [10], in experiment [11] and in experiment [12] was > 100 µM (inactive) throughout. Besides, the GI50 in experiment [13], in experiment [15], in experiment [16], in experiment [17], in experiment [18] and in experiment [19] was > 100 µM (inactive) throughout. In addition, the GI50 in experiment [20] is > 100 µM (inactive).
`O=C(NNC(=O)c1ccccc1O)c1ccco1`: the GI50 in experiment [1] was > 100 µM (inactive); in [3], > 100 µM (inactive); in [4], 97.5 µM (inactive); in experiment [5], 61.1 µM; in experiment [6], 28.9 µM (inactive); in [7], > 100 µM (inactive). Also, the GI50 is > 100 µM (inactive) in experiment [8]; > 100 µM (inactive) in [9]; > 100 µM (inactive) in experiment [10]; 60.5 µM (inactive) in experiment [11]; > 100 µM (inactive) in experiment [12]; > 100 µM (inactive) in experiment [13]. In addition, the GI50 is 57.3 µM (inactive) in experiment [15]; > 100 µM (inactive) in experiment [16]; 80.7 µM (inactive) in experiment [17]; > 100 µM (inactive) in experiment [18]; > 100 µM (inactive) in experiment [19]; > 100 µM (inactive) in [20].
Consider `Cc1nc2cc(Cl)c(N)cc2[nH]1`, for which the GI50 is > 100 µM (inactive) in [1]; > 100 µM (inactive) in [2]; > 100 µM (inactive) in experiment [3]; > 100 µM (inactive) in experiment [4]; above 100 µM in experiment [5]; > 100 µM (inactive) in experiment [6]. The GI50 in [7], in experiment [8], in [9], in experiment [10], in experiment [11] and in experiment [12] was > 100 µM (inactive) throughout. For the same compound, the GI50 in experiment [13], in experiment [14], in experiment [15], in experiment [17], in experiment [18] and in experiment [19] was > 100 µM (inactive) throughout. Moreover, the GI50 in [20] was > 100 µM (inactive).
For the compound `CCC(=O)OC1CCn2c1nc1c2C(=O)C(C)=C(N2CC2)C1=O` (stereo not drawn), the GI50 in [1] is 0.0526 µM (active); in experiment [2], 0.0895 µM (active); in [3], 0.00743 µM (active); in [4] it was 0.0935 µM (active); in experiment [5], 0.0275 µM; in [6] it was 0.35 µM (active). The GI50 in experiment [8] was 0.0938 µM (active); in experiment [9], 0.0771 µM (active); in experiment [10], 0.0698 µM (active); in experiment [11] it was 1.42 µM (inactive); in experiment [12], 0.043 µM (active); in experiment [13], 0.063 µM (active). For the same compound, the GI50 in experiment [14] was < 0.0423 µM (active); in experiment [15], 0.0361 µM (active); in experiment [16], 0.126 µM (active); in experiment [17], 0.0678 µM (active); in experiment [18], 0.105 µM (active); in experiment [19], 0.064 µM (active). Moreover, the GI50 in [20] is 0.0294 µM (active).
For `CCCCSC1=N/C(=C\c2ccccc2O)C(=O)N1`, the GI50 is 28.2 µM (inactive) in experiment [1]; 40.3 µM (inactive) in experiment [2]; > 100 µM (inactive) in experiment [3]; 40.3 µM (inactive) in experiment [4]; 96.6 µM in experiment [5]; 94.6 µM (inactive) in experiment [6]. In addition, the GI50 in experiment [7] was 78.3 µM (inactive); in [8] it was 49.8 µM (inactive); in [9], 84.3 µM (inactive); in experiment [10], 71.6 µM (inactive); in [11] it was 34 µM (inactive); in experiment [12] it was 76 µM (inactive). Further, the GI50 in [13] was > 100 µM (inactive); in [14], 42.7 µM (inactive); in experiment [15], 69 µM (inactive); in experiment [16], 66.1 µM (inactive); in experiment [17], > 100 µM (inactive); in [18], 23.4 µM (inactive). For the same compound, the GI50 in experiment [19] was 57.8 µM (inactive).
